In patent publication US9187441B2, “p53-Mdm2 antagonists” (University of Pittsburgh—Of the Commonwealth System of …, priority 2010, dated 2015):
Converted amounts (≈) assume the structure as drawn.

Experiments:
[1] = biological target: T1, Mdm2 (Homo sapiens (Human), UniProt Q00987); assay: NMR (AIDA) ligand binding to Mdm2; settings: Table 8, Formula II compounds, measured by NMR (AIDA)
Protocol: All NMR spectra were acquired at 298 K on a Bruker DRX 600 MHz spectrometer equipped with a cryoprobe. Typically, NMR samples contained 0.1-0.2 mM protein in 50 mM KH2PO4 and 50 mM Na2HPO4, pH 7.4, containing 150 mM NaCl and 5 mM β-Mercaptoethanol. Water suppression was carried out using the WATERGATE sequence. NMR data were processed using the Bruker program Xwin-NMR version 3.5. NMR ligand binding experiments were carried out in an analogous way to those previously described. See D'Silva L., et. al., J. Am. Chem. Soc. 2005, 127, 13220-13226 and Popowicz G. M., et. al., Cell Cycle. 2007, 6, 2386-2392. The maximum concentration of DMSO at the end of titration experiments was less than 1%. The pH was maintained constant during the entire titration. The 1H-15N-HSQC spectra were recorded using fast HSQC pulse sequence as described by Mori et. al., J. Magn. Reson. B 1995, 108, 94-98.
The binding constants (Ki values), of representative Formula II compounds was determined using fluorescence polarization or NMR spectroscopy and are illustrated in Table 8.

[2] = biological target: T1, Mdm2; assay: Fluorescence polarization (FP) competition binding assay with Mdm2
Protocol: Fluorescence polarization (FP) assay was employed to measure the binding affinities of small molecules with Mdm2.
Protocol for Fluorescence Polarization (FP) Assay:
Fluorescent polarization experiments were performed as follows. […] The fluorescence intensities parallel (Intparallel) and perpendicular (Intperpedicular) to the plane of excitation were measured in parallel perpendicular black 384-well NBS assay plates (Corning) at room temperature (˜20° C.). […] All fluorescence polarization values were expressed in millipolarization units (mP). […] Competition binding assays were performed using the 10 nM fluorescent P4 peptide and 100 nM Mdm2. Binding constant and inhibition curves were fitted using the SigmaPlot (SPSS Science Software).

[3] = Water (aqueous) solubility; assay type: physicochemical
[4] = Table 8, Formula II compounds, measured by FP
[5] = read-out: Ki (inhibition constant), Table 1, compounds 8 (C-2 ethyl esters), FP assay, n.i. = no interaction
[6] = Table 1, compounds 8 (C-2 ethyl esters), FP assay, n.i. = no interaction

T1 sequence (Q00987 whole entry): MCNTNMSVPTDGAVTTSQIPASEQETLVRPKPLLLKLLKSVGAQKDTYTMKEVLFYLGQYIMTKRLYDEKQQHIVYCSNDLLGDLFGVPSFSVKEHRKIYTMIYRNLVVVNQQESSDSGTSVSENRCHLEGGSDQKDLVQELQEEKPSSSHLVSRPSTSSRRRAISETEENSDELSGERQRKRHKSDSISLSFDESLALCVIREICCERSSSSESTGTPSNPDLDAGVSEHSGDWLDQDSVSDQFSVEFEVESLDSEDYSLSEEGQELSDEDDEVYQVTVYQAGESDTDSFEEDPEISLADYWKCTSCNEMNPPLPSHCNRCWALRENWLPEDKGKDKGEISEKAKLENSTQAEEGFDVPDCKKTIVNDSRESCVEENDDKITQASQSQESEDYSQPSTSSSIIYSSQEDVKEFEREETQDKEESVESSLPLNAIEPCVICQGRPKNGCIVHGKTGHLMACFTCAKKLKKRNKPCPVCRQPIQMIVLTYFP

CCOC(=O)c1[nH]c2cc(Cl)ccc2c1C(NC(CC(C)C)C(=O)OC)C(=O)NCc1ccccc1 (stereo in doubt) [KK229, Ethyl 3-(2-(benzylamino)-1-(((R)-1-methoxy-4-methyl-1-oxopentan-2-yl)amino)-2-oxoethyl)-6-chloro-1H-indole-2-carboxylate]
Ki [1]: 1.7 µM

CCOC(=O)c1[nH]c2cc(Cl)ccc2c1C(NC(CC(C)C)C(=O)NCCO)C(=O)NCc1ccccc1 (stereo in doubt) [KK259, Ethyl 3-(2-(benzylamino)-1-(((S)-1-((2-hydroxyethyl)amino)-4-methyl-1-oxopentan-2-yl)amino)-2-oxoethyl)-6-chloro-1H-indole-2-carboxylate]
Ki [2, 4]: 9 µM

CCOC(=O)c1[nH]c2cc(Cl)ccc2c1C(NC(CC(C)C)C(=O)NCCCN1CCOCC1)C(=O)NCc1ccccc1 (stereo in doubt) [KK261, Ethyl 3-(2-(benzylamino)-1-(((S)-4-methyl-1-((3-morpholinopropyl)amino)-1-oxopentan-2-yl)amino)-2-oxoethyl)-6-chloro-1H-indole-2-carboxylate]
Ki [2, 4]: 11 µM

CC(C)(C)NC(=O)C(c1c(C(=O)O)[nH]c2cc(Cl)ccc12)N(C=O)Cc1cccc(F)c1 (stereo not shown) [Compound 7C, 3-(2-(tert-butylamino)-1-(N-(3-fluorobenzyl)formamido)-2-oxoethyl)-6-chloro-1H-indole-2-carboxylic acid]
Ki [2]: 0.81 µM

CC(C)(C)NC(=O)C(c1c(C(=O)O)[nH]c2cc(Cl)ccc12)N(C=O)Cc1ccccc1F (stereo not shown) [Compound 7D, 3-(2-(tert-butylamino)-1-(N-(2-fluorobenzyl)formamido)-2-oxoethyl)-6-chloro-1H-indole-2-carboxylic acid]
Ki [2]: 1.7 µM

CC(C)(C)NC(=O)C(c1c(C(=O)O)[nH]c2cc(Cl)ccc12)N(C=O)Cc1cc(F)ccc1F (stereo not shown) [Compound 7H, 3-(2-(tert-butylamino)-1-(N-(2,5-difluorobenzyl)formamido)-2-oxoethyl)-6-chloro-1H-indole-2-carboxylic acid]
Ki [2]: 2.5 µM

CC(C)(C)NC(=O)C(c1c(C(=O)O)[nH]c2cc(Cl)ccc12)N(C=O)Cc1cc(F)c(F)c(F)c1 (stereo not shown) [Compound 7M, 3-(2-(tert-butylamino)-2-oxo-1-(N-(3,4,5-trifluorobenzyl)formamido)ethyl)-6-chloro-1H-indole-2-carboxylic acid]
solubility ([3]; aqueous medium): 850 µg/mL (≈ 1710 µM)

CCOC(=O)c1[nH]c2cc(Cl)ccc2c1C(C(=O)NCc1ccccc1)N(CC(C)C)C(C)=O (stereo not shown) [Compound 8c, Ethyl 3-(2-(benzylamino)-1-(N-isobutylacetamido)-2-oxoethyl)-6-chloro-1H-indole-2-carboxylate]
Ki [2, 5]: 4 µM

CCOC(=O)c1[nH]c2cc(Cl)ccc2c1C(C(=O)NCc1ccccc1)N(Cc1ccccc1)C(C)=O (stereo not shown) [Compound 8d, Ethyl 3-(1-(N-benzylacetamido)-2-(benzylamino)-2-oxoethyl)-6-chloro-1H-indole-2-carboxylate]
Ki ([2]; read-out: Ki (inhibition constant)): 6 µM

CCOC(=O)c1[nH]c2cc(Cl)ccc2c1C(C(=O)NC1CCCCC1)N(Cc1ccc(Cl)c(Cl)c1)C(C)=O (stereo not shown) [Compound 8g, Ethyl 6-chloro-3-(2-(cyclohexylamino)-1-(N-(3,4-dichlorobenzyl)acetamido)-2-oxoethyl)-1H-indole-2-carboxylate]
Ki [2, 5]: 9 µM

CCOC(=O)c1[nH]c2cc(Cl)ccc2c1C(C(=O)NC1CCCCC1)N(C=O)Cc1ccc(Cl)cc1 (stereo not shown) [Compound 8j, Ethyl 6-chloro-3-(1-(N-(4-chlorobenzyl)formamido)-2-(cyclohexylamino)-2-oxoethyl)-1H-indole-2-carboxylate]
Ki [2, 5]: 50 µM

CCOC(=O)c1[nH]c2cc(Cl)ccc2c1C(C(=O)NC1CCCCC1)N(C=O)Cc1ccc(F)cc1 (stereo not shown) [Compound 8k, Ethyl 6-chloro-3-(2-(cyclohexylamino)-1-(N-(4-fluorobenzyl)formamido)-2-oxoethyl)-1H-indole-2-carboxylate]
Ki [2, 5]: 30 µM

CCOC(=O)c1[nH]c2cc(Cl)ccc2c1C(C(=O)NC(C)(C)C)N(C=O)Cc1ccc(-c2ccccc2)cc1 (stereo not shown) [Compound 8s, Ethyl 3-(1-(N-(biphenyl-4-ylmethyl)formamido)-2-(tert-butylamino)-2-oxoethyl)-6-chloro-1H-indole-2-carboxylate]
Ki (inhibition constant) [2, 6]: n.i.

CCOC(=O)c1[nH]c2cc(Cl)ccc2c1C(C(=O)NC(C)(C)C)N(C=O)Cc1ccc(Oc2ccccc2)cc1 (stereo not shown) [Compound 8t, Ethyl 3-(2-(tert-butylamino)-2-oxo-1-(N-(4-phenoxybenzyl)formamido)ethyl)-6-chloro-1H-indole-2-carboxylate]
Ki (inhibition constant) [2, 6]: n.i.

CC(C)(C)NC(=O)C(c1c(C(=O)O)[nH]c2cc(Cl)ccc12)N(C=O)Cc1ccc(-c2ccccc2)cc1 (stereo not shown) [Compound 9s, 3-(1-(N-(biphenyl-4-ylmethyl)formamido)-2-(tert-butylamino)-2-oxoethyl)-6-chloro-1H-indole-2-carboxylic acid]
Ki ([2]; read-out: Ki (inhibition constant), Table 2, compounds 9 (free C-2 carboxylic acids), FP assay): 2.5 µM

CCOC(=O)c1[nH]c2cc(Cl)ccc2c1C(N[C@H](C(=O)OC)C(C)C)C(=O)NCc1ccccc1 (stereo partly drawn) [KK228, Ethyl 3-(2-(benzylamino)-1-(((S)-1-methoxy-3-methyl-1-oxobutan-2-yl)amino)-2-oxoethyl)-6-chloro-1H-indole-2-carboxylate]
Ki [2, 4]: < 1 µM

CCOC(=O)c1[nH]c2cc(Cl)ccc2c1C(N[C@@H](CC(C)C)C(=O)NCCN1CCOCC1)C(=O)NCc1ccccc1 (stereo partly drawn) [KK242, Ethyl 3-(2-(benzylamino)-1-(((S)-4-methyl-1-((2-morpholinoethyl)amino)-1-oxopentan-2-yl)amino)-2-oxoethyl)-6-chloro-1H-indole-2-carboxylate]
Ki [2, 4]: 10 µM

CCOC(=O)c1[nH]c2cc(Cl)ccc2c1C(NC(CC(C)C)C(=O)O)C(=O)NCc1ccccc1 (stereo not shown) [KK272, 2-((2-(benzylamino)-1-(6-chloro-2-(ethoxycarbonyl)-1H-indol-3-yl)-2-oxoethyl)amino)-4-methylpentanoic acid]
Ki [2, 4]: 1.4 µM

CC(C)CC(NC(C(=O)NCc1ccccc1)c1c(C(=O)O)[nH]c2cc(Cl)ccc12)C(=O)NCCN1CCOCC1 (stereo not shown) [KK273, 3-(2-(benzylamino)-1-(4-methyl-1-(2-morpholinoethylamino)-1-oxopentan-2-ylamino)-2-oxoethyl)-6-chloro-1H-indole-2-carboxylic acid]
Ki [1]: 0.4 µM

CC(C)CC(NC(C(=O)NCc1ccccc1)c1c(C(=O)O)[nH]c2cc(Cl)ccc12)C(=O)NCCO (stereo not shown) [KK278, 3-(2-(benzylamino)-1-((1-((2-hydroxyethyl)amino)-4-methyl-1-oxopentan-2-yl)amino)-2-oxoethyl)-6-chloro-1H-indole-2-carboxylic acid]
Ki [2, 4]: 9 µM

CC(C)CC(NC(C(=O)NCc1ccccc1)c1c(C(=O)O)[nH]c2cc(Cl)ccc12)C(=O)NCCCN1CCOCC1 (stereo not shown) [KK279, 3-(2-(benzylamino)-1-((4-methyl-1-((3-morpholinopropyl)amino)-1-oxopentan-2-yl)amino)-2-oxoethyl)-6-chloro-1H-indole-2-carboxylic acid]
Ki [2, 4]: 7 µM

COc1ccc(C2=N[C@@H](c3ccc(Cl)cc3)[C@@H](c3ccc(Cl)cc3)N2C(=O)N2CCNC(=O)C2)c(OC(C)C)c1 [Nutlin-3a, reference compound]
aqueous solubility [3]: 100 µg/mL (≈ 172 µM)
